Results on four molecules are retold here after patent publication US4927843A (priority 1986, dated 1990).

Structures are written as SMILES. “Also recorded” adds a separate entry of the source.

The nature of data set [1]: toxicity to animals: highest non-lethal dose given ip to ICR mice. As to conditions: mouse, in vivo. As to the method:
(§1) The above mentioned thiosemicarbazone compounds were finally powdered and suspended in dimethylsulfoxid (DMSO)-(Merck) to get stock solutions of 10 mg/ml. Stock solutions were diluted to a final volume of 0.25 ml DMSO to obtain the following concentrations: 2,5 mg, 2 mg; […], 1 mg, in 0.25 ml final volume.
(§2) Each drug concentration of the 4 thiosemicarbazone derivatives was injected in a sterile manner intraperitonally (iP) to a group of 10 ICR mice, each weighing 20 g. After one injection the mice were followed for the highest non-lethal dose, and for the lethal dose. The results are an average of three separate trials.

Data set [2] in a line: toxicity to animals: Lethal Dose-50 given ip to ICR mice. The note with it: mouse, in vivo, ICR mice 20 g, one injection, average of three separate trials, Table 3. The protocol:
as §1, §2

Data set [3] deals with Abelson-Moloney murine leukemia virus (Ab-MoMuLV) induced B-lymphoma. Put plainly: antiviral effect in mice against B-lymphoma induced by Ab-MoMuLV. The data set is classed as in vivo. The note with it: daily dose of 2 μg/4 g weight for 10 consecutive days, immediately after infection, versus untreated mice. As to the method: One of the three compounds, namely M-IBDET was examined as to its efficacy against the Abelson-Moloney murine leukemia virus (Ab-MoMuLV). Injection of susceptible mice with B-cell lymphocytes infected with Ab-MoMuLV usually results in induction of B-type lymphoma within 3 weeks. Treatment of mice immediately after infection with MoMuLV infected cells with M-IBDET at a daily dose of 2 μg/4 g weight for 10 consecutive days caused a delay of 3 weeks in the appearance of the lymphoma in the drug-treated mice as compared with untreated mice.

Another data set concerns Moloney leukemia virus. The note with it: literature refs (1-3); cited from earlier work.
Data set [4] concerns viruses belonging to the Retroviridae family. As to the kind of experiment: inhibition of virus production of Retroviridae in infected cells (summary). The note with it: tested by applicant. It counts as cell-based. As to the method:
The thiosemicarbazone compounds described in this invention, were found by us to be specific inhibitors of viruses belonging to the Retroviridae family. Results obtained in our laboratory indicate that amounts ranging from 17 μM to 34 μM of the thiosemicarbazones suppressed specifically the production of viruses belonging to the Retroviridae family. The extent of inhibition of virus production in the infected cells was 75-85%. This inhibition was confirmed by various parameters of virus assay such as: reverse transcriptase activity, virus infectivity and contents of viral structural proteins.

Data set [5] deals with viruses listed in Table I. It counts as cell-based, Mouse, Avian, Human cells. The note with it: 34 μM, 18 hrs (such conditions of treatment).
In the next data set the test system is EIAV. As to the kind of experiment: inhibition of EIAV production in chronically infected fibroblast cells. As to conditions: 2 hrs then 1:10 dilution, further 24 hours. It counts as cell-based. The protocol:
Fibroblast cells of […] chronically infected with EIAV were incubated for 2 hrs with concentrations ranging from 17 μM to 34 μM of the described thiosemicarbazone compounds. Subsequently the medium was diluted 1:10 to obtain a final concentration of ranging from 1.7 to 3.4 μM. The cultures were further incubated for 24 hours and virus production was assayed in drug-treated and untreated cells. The extent of inhibition of virus production in the treated cultures was 70-80%. M-IBT was tested and found to be ineffective.

For data set [6], the system named is human immunodeficiency virus--HIV. Put plainly: inhibition of HIV production in chronically infected H9 and HuT-78 cell lines. The data set is classed as cell-based, human cell lines. As to conditions: evaluated in a similar manner (2 hrs, then 1:10 dilution, 24 hrs). As to the method:
The thiosemicarbazone compounds were examined for their inhibitory effect on the human immunodeficiency virus--HIV in the following chronically infected cell lines:
H9 cell line--A human established T-cell line chronically infected with HIV;
HuT-78 cell line--A human cell line chronically infected with ARV2 (HIV).
concentrations of 5×10^6 cells per ml were incubated with 17-34 μM of the different thiosemicarbazones. Virus production was assayed in the drug-treated and untreated cells after 7 hrs of exposure. An 85% inhibition of virus production was found in the drug-treated cultures as compared to control untreated cultures. Virus production was determined by assaying various virus parameters such as reverse transcriptase activity, plaque forming units (PFU) and viral structtural protein content.
The compounds were also tested by employing a different way of treatment of the HIV infected cultures: 5×10^6 infected cells were incubated with 17-34 μM of the drug for 2 hrs. Subsequently a dilution of 1:10 of the medium was performed to final concentration of 1.7-3.4 μM of the drug. The cultures were further incubated for 24 hrs in diluted medium and virus production was assayed. The extent of inhibition of HIV production achieved by the described treatment was 75-85%. M-IBT was evaluated in a similar manner.

The test system of data set [7] is pox-virus family (smallpox). The note with it: oral, 40 mg/kg for 4 consecutive days; cited from earlier work.
[8] abbreviates: ICR mice 20 g, one injection, average of three separate trials, Table 2.

On to `CCN(CC)C(=S)NN=C1C(=O)N(C)c2ccccc21` [M-IBDET, 1-methylisatin-β-4':4'-diethylthiosemicarbazone], for which the MTD in [1] (setting [8]) worked out at 50 mg/kg. For the same molecule, the median lethal dose (LD50) (in general, the dose expected to kill half of the subjects tested) in [2] came to 125 mg/kg. The “delay in the appearance of the lymphoma” value in data set [3] is reported as 3 weeks. For the same molecule, the “inhibition of production of Moloney leukemia virus” value in the data set with Moloney leukemia virus is “inhibits the production of Moloney leukemia virus”.
`C=CCN1C(=O)C(=NNC(=S)N(C)C)c2ccccc21` [A-IBDMT, 1-allylisatin-β-4':4'-dimethylthiosemicarbazone] registered an MTD in data set [1] (setting [8]) of 100 mg/kg. This molecule displayed an LD50 in data set [2] of 175 mg/kg.
Regarding `C=CCN1C(=O)C(=NNC(=S)N(CC)CC)c2ccccc21` [A-IBDET, 1-allylisatin-β-4':4'-diethylthiosemicarbazone], the MTD in data set [1] (setting [8]) was 100 mg/kg. The molecule also displayed a median lethal dose (LD50) in data set [2] of 175 mg/kg.
Regarding `CN1C(=O)C(=NNC(N)=S)c2ccccc21` [M-IBT, N-methylisatine 3-thiosemicarbazone], the “effectiveness against viruses of the Retroviridae” value in [4] is “ineffective”. Also, the “effectiveness on virus infectivity” value in [5] is given as “not effective”. In addition, the “effectiveness against EIAV” value in the data set with EIAV is on record as “ineffective”. Moreover, in [6], the “inhibition of HIV production” value is “No inhibition could be detected”. For the same molecule, the MTD in data set [1] (ICR mice 20 g-weight) amounted to 50 mg/kg. This molecule yielded an LD50 in [2] of 125 mg/kg. Also, the “clinical effectiveness against pox virus / smallpox” value in data set [7] is on record as “effective in the treatment of humans against smallpox; also recorded: effective against subjects known to have contact with smallpox; also recorded: effective results; also recorded: clinically effective”.
